Experimental data from patent publication US20250205158A1, “BIODEGRADABLE LIPIDS AND FORMULATIONS FOR DELIVERY OF MRNA” (Massachusetts Institute of Technology, priority 2023, published 2025).
Values joined by “and” are separate entries in the source; they are usually repeats but may differ in a detail not shown here. Equal values may be shown once. Read-outs that look alike come from different tables or passages of the source.

What was measured:
[1] = Ethanol solubility of ionizable lipids; type: physicochemical
Excerpt: AMG lipids for enhanced mRNA delivery and improved tolerability.

[2] = tested on: BALB/c mice; conditions: spike mRNA LNPs on day 0 and day 21, serum day 35
Procedure: Briefly, 6-8 week old BALB/c mice were vaccinated with 1 g of mRNA LNPs on day 0 and on day 21, and serum was collected on day 35 to characterize the antibody response to vaccination.
Immunization studies. […] All LNPs were injected IM in the quadricep with an injection volume of 50 μL with the doses specified in the main text. All vaccination experiments followed a prime-boost dosing regimen with doses given on day 0 and day 21. On day 35, mice were sacrificed, and blood was collected via cardiac puncture and their spleens were collected for further characterization.
Binding antibody ELISAs. […] Plates were coated overnight at 4° C. by adding 100 μL of a 1 μg/mL antigen solution in 100 mM carbonate buffer, pH 9.6 to each well. The coated plates were then washed with ELISA wash buffer (Biolegend) and blocked for 1 hr. at room temperature (RT) with 150 μL of 1% BSA in PBS. The plate was then washed again, and 100 μL of serially diluted serum samples were then added to the plate and incubated at RT for 1 hr. Next, the plate was washed and the secondary goat anti-mouse IgG, HRP antibody (ThermoFisher) was diluted 1:3,000. 100 μL of this solution added to each well an incubated at RT for 1 hr. After incubation, the plate was washed and 100 μL of TMB chromogen solution (ThermoFisher) was added to each well and incubated for 30 mins. Finally, the HRP reaction was stopped by the addition of 100 μL of 0.5 M H2SO4. The absorbance of each well was immediately read at 450 nm with 600 nm as a reference using an Infinite M200 Pro (Tecan) plate reader. The resultant data were then fit with a 4-PL sigmodal curve and the endpoint titers were taken as the point at which this curve crossed four times the absorbance of the blank wells.

[3] = tested on: mice; conditions: for protein expression relative to MD-1: in vitro and in vivo via intramuscular administration (FIGS. 6A-6B)
Procedure: Evaluation of the LNPs via intramuscular injection. The in vivo potency of the ionizable lipids was screened through intramuscular injection of LNPs loaded with mRNA encoding firefly luciferase protein. These LNPs were formulated with a molar composition of (35:16:46.5:2.5) using one of the synthesized ionizable lipids, DOPE as a helper lipid, cholesterol, and DMPE-PEG respectively. mRNA-loaded LNPs were intramuscularly administered in mice at a dose of 1 μg, and expression of luciferase protein was monitored at 6 hours via IVIS bioluminescent imaging (FIG. 3). […] Without wishing to be bound by theory, increased levels of protein expression may enhance the response to vaccination.
In Vitro and In Vivo Screening of AMG Lipid Library. Following synthesis, the mRNA delivery efficacy of the AMG lipids was evaluated through both in vitro and in vivo screens. To screen the first generation of AMG lipids (FIGS. 11B and 11C), firefly luciferase (FLuc) mRNA was encapsulated into LNPs using a previously reported formulation containing ionizable lipid, 1,2-dioleoyl-sn-glycero-3-phosphoethanolamine (DOPE), cholesterol, and 1,2-dimyristoyl-rac-glycero-3-methoxypolyethylene glycol-2000 (DMG-PEG).^19 C2C12 myoblast cells were treated with these LNPs and FLuc expression was evaluated at 24 hrs. (FIG. 16). […] Each of these batches was then injected IM into the quadriceps of mice, and expression was characterized via IVIS imaging (Screen 1, FIG. 11E).
AMG lipids for enhanced mRNA delivery and improved tolerability. A rational design approach was used to further vary the ionizable lipid structure to enhance the mRNA delivery and immunogenicity. […] The lipid tail structure was varied to promote efficient LNP self-assembly while simultaneously promoting endosomal membrane disruption.^18 Monounsaturated (G41-G44) or fully saturated (GC12-GC18) lipid tails were developed. […] Without wishing to be bound by any particular theory, tail length may impact membrane fusion and endosomal escape.^10,11
Next, the headgroup was further modified to further improve delivery. Headgroups play a multifunctional role including enhancing LNP-mRNA interactions, promoting membrane-LNP fusion and endosomal escape which all contribute to mRNA delivery.^23 A series of similar aza-crown ethers were used to further investigate structure-activity relationship and enhance mRNA delivery. These headgroups featured between three and eight nitrogens linked by varying length of methylene chains. Each of these headgroups were reacted with tail G41 to synthesize a next generation of AMG lipids, which were then formulated with FLuc mRNA and evaluated for mRNA delivery following IM administration in mice (FIG. 12B).

[4] = LNP characterization (diameter, PDI, % EE); type: physicochemical; conditions: LNP formulated with the named lipid; for Diameter (nm) / PDI: dynamic light scattering; for EE %: Ribogreen assay
Procedure: Representative LNP Characterization Data. The diameter, polydispersity index (PDI), and % EE were characterized for various LNPs.
LNP characterization. Concentration of mRNA was determined using a Quant-IT Ribogreen assay. LNPs were diluted in either native TE buffer (ThermoFisher) or denaturing TE buffer+0.5% Triton-X 100 (Millipore-Sigma) to measure the “free” and total mRNA, respectively. 100 μL of these unknowns were added to a black 96-well plate. Separately, standard curves ranging from 2 ng/μL-0 ng/μL were prepared in each of these buffers and 100 μL were added to the same 96-well plate. Finally, Quant-IT Ribogreen reagent (ThermoFisher) was diluted 1:200 in TE buffer and 100 μL of this solution was added to each of the wells. The well plate was then mixed at 400 rpm with a plate shaker for 5 mins. and the fluorescence was read with an excitation/emission of 485/535. LNPs were measured in triplicate and standards were measured in duplicate. RNA concentration in each of the unknown wells was calculated by fitting the standard curves with a linear trendline. Encapsulation efficiency (% EE) was calculated according to: […]
Dynamic light scattering and zeta potential measurements were performed using a Malvern Zetasizer system. The reported diameter and PDI were obtained from the cumulants fit of the autocorrelation function. Zeta potential measurements were performed in 0.1×PBS, pH 7.4 and calculated using the Smoluchowski approximation.

[5] = tissue not named

CCCCCCCCCCCCCCCC(=O)OCC(O)CN1CCCN(CC(O)COC(=O)CCCCCCCCCCCCCCC)CCN(CC(O)COC(=O)CCCCCCCCCCCCCCC)CCCN(CC(O)COC(=O)CCCCCCCCCCCCCCC)CC1 (mixture of isomers) [AMG10C16]
ethanol solubility [1]: poor ethanol solubility

CCCCCC/C=C\CCCC(=O)OCC(O)CN1CCCN(CC(O)COC(=O)CCC/C=C\CCCCCC)CCN(CC(O)COC(=O)CCC/C=C\CCCCCC)CCCN(CC(O)COC(=O)CCC/C=C\CCCCCC)CC1 (centres unmarked) [AMG1041]
antibody titers after vaccination [2]: high levels of antibody titers
fold higher expression than AMG104 ([3]; IM, tail derivatives, 5 μg, 24 hours): ~3 fold
Diameter (nm) [4]: 81.79 nm
PDI [4]: 0.113
[AMG1041] ng/g tissue ([5]; Time 0 hrs): 0 ng/g tissue
[AMG1041] ng/g tissue ([5]; Time 1 hrs): 32200 ng/g tissue and 24800 ng/g tissue and 28000 ng/g tissue
[AMG1041] ng/g tissue ([5]; Time 2 hrs): 14000 ng/g tissue and 23400 ng/g tissue and 20400 ng/g tissue
[AMG1041] ng/g tissue ([5]; Time 4 hrs): 17200 ng/g tissue and 12600 ng/g tissue and 9400 ng/g tissue
[AMG1041] ng/g tissue ([5]; Time 8 hrs): 4800 ng/g tissue and 8000 ng/g tissue
[AMG1041] ng/g tissue ([5]; Time 24 hrs): 600 ng/g tissue

CCCCCC/C=C\CCCCCCCC(=O)OCC(O)CN1CCCN(CC(O)COC(=O)CCCCCCC/C=C\CCCCCC)CCN(CC(O)COC(=O)CCCCCCC/C=C\CCCCCC)CCCN(CC(O)COC(=O)CCCCCCC/C=C\CCCCCC)CC1 (centres unmarked) [AMG1043]
Diameter (nm) [4]: 79.27 nm
PDI [4]: 0.169

CCCCCCCCCCCCCCCCCC(=O)OCC(O)CN1CCCN(CC(O)COC(=O)CCCCCCCCCCCCCCCCC)CCN(CC(O)COC(=O)CCCCCCCCCCCCCCCCC)CCCN(CC(O)COC(=O)CCCCCCCCCCCCCCCCC)CC1 (mixture of isomers) [AMG10C18]
ethanol solubility [1]: poor ethanol solubility

CCC/C=C\C/C=C\CCCC(=O)OCC(O)CN1CCN(CC(O)COC(=O)CCC/C=C\C/C=C\CCC)CCN(CC(O)COC(=O)CCC/C=C\C/C=C\CCC)CCN(CC(O)COC(=O)CCC/C=C\C/C=C\CCC)CCN(CC(O)COC(=O)CCC/C=C\C/C=C\CCC)CCN(CC(O)COC(=O)CCC/C=C\C/C=C\CCC)CC1 (centres unmarked) [AMG1554]
protein expression relative to MD-1 [3]: superseded or matched MD-1
EE % [4]: 91.711%
Diameter (nm) [4]: 105 nm
PDI [4]: 0.1

C/C=C\C/C=C\CCCCCC(=O)OCC(O)CN1CCN(CC(O)COC(=O)CCCCC/C=C\C/C=C\C)CCN(CC(O)COC(=O)CCCCC/C=C\C/C=C\C)CCN(CC(O)COC(=O)CCCCC/C=C\C/C=C\C)CCN(CC(O)COC(=O)CCCCC/C=C\C/C=C\C)CCN(CC(O)COC(=O)CCCCC/C=C\C/C=C\C)CC1 (centres unmarked) [AMG1556]
protein expression relative to MD-1 [3]: superseded or matched MD-1
EE % [4]: 85.76%
Diameter (nm) [4]: 96 nm
PDI [4]: 0.121

CCCCCCCCC=CCCCCCCCC(=O)OCC(O)CN1CCCN(CC(O)COC(=O)CCCCCCCC=CCCCCCCCC)CCN(CC(O)COC(=O)CCCCCCCC=CCCCCCCCC)CCCN(CC(O)COC(=O)CCCCCCCC=CCCCCCCCC)CC1 (mixture of isomers) [AMG104]
fold higher mRNA expression than the next best lipid AMG1010 ([3]; Screen 3, IM, 1 μg, imaged 24 hours post injection): ~5 fold

CCCCCC/C=C\CCCCOC(=O)CCN1CCN(CCC(=O)OCCCC/C=C\CCCCCC)CCN(CCC(=O)OCCCC/C=C\CCCCCC)CCN(CCC(=O)OCCCC/C=C\CCCCCC)CCN(CCC(=O)OCCCC/C=C\CCCCCC)CCN(CCC(=O)OCCCC/C=C\CCCCCC)CC1 [AMG1559]
fold drop in transfection versus AMG1541 ([3]; IM, analogue without β-amino alcohol): 34 fold

CCCC/C=C\CCCCCC(=O)OCC(O)CN1CCN(CC(O)COC(=O)CCCCC/C=C\CCCC)CCN(CC(O)COC(=O)CCCCC/C=C\CCCC)CCN(CC(O)COC(=O)CCCCC/C=C\CCCC)CCN(CC(O)COC(=O)CCCCC/C=C\CCCC)CCN(CC(O)COC(=O)CCCCC/C=C\CCCC)CC1 (centres unmarked) [AMG1548]
protein expression relative to MD-1 [3]: superseded or matched MD-1
EE % [4]: 54.6%
Diameter (nm) [4]: 104.7 nm
PDI [4]: 0.106

CC/C=C\C/C=C\CCCCC(=O)OCC(O)CN1CCN(CC(O)COC(=O)CCCC/C=C\C/C=C\CC)CCN(CC(O)COC(=O)CCCC/C=C\C/C=C\CC)CCN(CC(O)COC(=O)CCCC/C=C\C/C=C\CC)CCN(CC(O)COC(=O)CCCC/C=C\C/C=C\CC)CCN(CC(O)COC(=O)CCCC/C=C\C/C=C\CC)CC1 (centres unmarked) [AMG1555]
protein expression relative to MD-1 [3]: superseded or matched MD-1
EE % [4]: 88.37%
Diameter (nm) [4]: 83 nm
PDI [4]: 0.077

C/C=C\CCCCCCCCC(=O)OCC(O)CN1CCN(CC(O)COC(=O)CCCCCCCC/C=C\C)CCN(CC(O)COC(=O)CCCCCCCC/C=C\C)CCN(CC(O)COC(=O)CCCCCCCC/C=C\C)CCN(CC(O)COC(=O)CCCCCCCC/C=C\C)CCN(CC(O)COC(=O)CCCCCCCC/C=C\C)CC1 (centres unmarked) [AMG1551]
in vivo mRNA delivery of alkene walking tail derivatives ([3]; IM, 0.1 μg, 6 hours): loss in potency
EE % [4]: 67.41%
Diameter (nm) [4]: 77 nm
PDI [4]: 0.145

CC/C=C\CCCCCCCC(=O)OCC(O)CN1CCN(CC(O)COC(=O)CCCCCCC/C=C\CC)CCN(CC(O)COC(=O)CCCCCCC/C=C\CC)CCN(CC(O)COC(=O)CCCCCCC/C=C\CC)CCN(CC(O)COC(=O)CCCCCCC/C=C\CC)CCN(CC(O)COC(=O)CCCCCCC/C=C\CC)CC1 (centres unmarked) [AMG1550]
protein expression relative to MD-1 [3]: superseded or matched MD-1
EE % [4]: 78.09%
Diameter (nm) [4]: 93 nm
PDI [4]: 0.119

CCCC/C=C\C/C=C\CCC(=O)OCC(O)CN1CCN(CC(O)COC(=O)CC/C=C\C/C=C\CCCC)CCN(CC(O)COC(=O)CC/C=C\C/C=C\CCCC)CCN(CC(O)COC(=O)CC/C=C\C/C=C\CCCC)CCN(CC(O)COC(=O)CC/C=C\C/C=C\CCCC)CCN(CC(O)COC(=O)CC/C=C\C/C=C\CCCC)CC1 (centres unmarked) [AMG1553]
protein expression relative to MD-1 [3]: superseded or matched MD-1
EE % [4]: 89.0186%
Diameter (nm) [4]: 94 nm
PDI [4]: 0.09

CCCCCC/C=C\CCCC(=O)OCC(O)CN1CCN(CC(O)COC(=O)CCC/C=C\CCCCCC)CCN(CC(O)COC(=O)CCC/C=C\CCCCCC)CCN(CC(O)COC(=O)CCC/C=C\CCCCCC)CCN(CC(O)COC(=O)CCC/C=C\CCCCCC)CCN(CC(O)COC(=O)CCC/C=C\CCCCCC)CCN(CC(O)COC(=O)CCC/C=C\CCCCCC)CC1 (centres unmarked) [AMG1741]
antibody titers after vaccination [2]: high levels of antibody titers
EE % [4]: 82.99%
Diameter (nm) [4]: 88 nm
PDI [4]: 0.156

CCCCC/C=C\CCCCC(=O)OCC(O)CN1CCN(CC(O)COC(=O)CCCC/C=C\CCCCC)CCN(CC(O)COC(=O)CCCC/C=C\CCCCC)CCN(CC(O)COC(=O)CCCC/C=C\CCCCC)CCN(CC(O)COC(=O)CCCC/C=C\CCCCC)CCN(CC(O)COC(=O)CCCC/C=C\CCCCC)CC1 (centres unmarked) [AMG1547]
protein expression relative to MD-1 [3]: superseded or matched MD-1
EE % [4]: 85.33%
Diameter (nm) [4]: 100 nm
PDI [4]: 0.142

CCC/C=C\CCCCCCC(=O)OCC(O)CN1CCN(CC(O)COC(=O)CCCCCC/C=C\CCC)CCN(CC(O)COC(=O)CCCCCC/C=C\CCC)CCN(CC(O)COC(=O)CCCCCC/C=C\CCC)CCN(CC(O)COC(=O)CCCCCC/C=C\CCC)CCN(CC(O)COC(=O)CCCCCC/C=C\CCC)CC1 (centres unmarked) [AMG1549]
protein expression relative to MD-1 [3]: superseded or matched MD-1
EE % [4]: 56.9%
Diameter (nm) [4]: 100.4 nm
PDI [4]: 0.234
